Results on 2 compounds are retold here after US20040253278A1, “Breath Freshening and Oral Cleansing Product Using Carvacrol” (priority 2002, published 2004).

What all share (format): cell-based
The test system of experiment [1] is both bacteria. Kind of experiment: MIC of positive control, bacteria not named. The settings on record: "for both bacteria". How it is done: (§1) In vitro tests were conducted with a gram positive supragingival plaque bacterium, Streptococcus mutans. In addition, two subgingival plaque bacteria associated with oral malodor were tested, Porphyromonas gingivalis and Fusobacterium nucleatum. The MIC (Minimum Inhibitory Concentrations) study protocol is as follows. Chlorhexidine was used as a positive control and sterile water was used as a negative control. Carvacrol was suspended in 10% methanol with 3.8% Tween 80. […] 96 well microtiter plates were used for this study. Each well contained 5×10^5 colony forming units/ml of bacteria, serially diluted agents and bacterial growth medium. All bacterial cultures were incubated at 37° C. and stationary. Bacterial growth was estimated spectrophotometrically at 660 nm, after 48 hours. The MIC for each test bacteria was defined as the minimum concentration of test compound limiting turbidity to […].

The subject of experiment [2] is both bacteria. The experiment can be described thus: MBC of positive control, bacteria not named. How it is done:
(§2) The MBC (Minimum bactericidal concentrations) were determined using the 96 well microtiter plate serial dilutions as described above for MIC studies. Serial dilution of cultures in wells showing no visible growth were performed and 10 microliters of culture were plated in triplicate on blood agar plates. Viable colonies were scored after incubation of the plates for 48 hours at 37° C. For each test bacterium, the number of CFU/ml were determined in the initial inoculum. The MBC was defined as the lowest concentration of a test compound that killed at least 99.9% of the cells present in the initial inoculum.

Experiment [3] deals with Porphyromonas gingivalis. Kind of experiment: MIC (minimum inhibitory concentration), 96 well microtiter serial dilution. The settings on record: 48 h. How it is done:
as §1

Experiment [4] relates to Fusobacterium nucleatum. The experiment is described as above. The settings on record: 48 h. How it is done:
as §1

For experiment [5], the system named is Streptococcus mutans. Described as above. The settings on record: 48 h. How it is done:
as §1

The subject of experiment [6] is Porphyromonas gingivalis. Kind of experiment: MBC (minimum bactericidal concentration), plating on blood agar. The settings on record: 48 h. How it is done: as §2
For experiment [7], the system named is Fusobacterium nucleatum. Described as above. The settings on record: 48 h. How it is done: as §2
Experiment [8] concerns Streptococcus mutans. Described as above. The settings on record: 48 h. How it is done:
as §2

In general, MIC refers to the lowest concentration that inhibits growth of the organism. In general, MBC refers to the lowest tested concentration that kills the bacteria rather than only halting them.

Converted amounts (≈) assume the structure as drawn.

Turning to `[H]/N=C(\N/C(=N/[H])NCCCCCCNC(=N)NC(=N)Nc1ccc(Cl)cc1)Nc1ccc(Cl)cc1` [Cholorhexidine, Chlorhexidine], the MIC in the experiment with both bacteria [1] is 1.25 µg/mL. The MBC in the experiment with both bacteria [2] came to 1.25 µg/mL.
In the case of `Cc1ccc(C(C)C)cc1O` [carvacrol], the MIC was 125 µg/mL (≈ 832 µM) against Porphyromonas gingivalis [3], 125 µg/mL (≈ 832 µM) against Fusobacterium nucleatum [4] and 250 µg/mL (≈ 1660 µM) with Streptococcus mutans [5]. In addition, the MBC in the experiment with Porphyromonas gingivalis [6], against Fusobacterium nucleatum [7] and in the experiment with Streptococcus mutans [8] was 125 µg/mL (≈ 832 µM) each time.
